Measured values taken from patent publication US20250387353A1 (SpringWorks Therapeutics, Inc., priority 2024, published 2025).

Tests used:
[1] = Pharmacokinetic parameters and characteristics of mirdametinib (Table A); format: in vivo, human; settings: for Tmax [median (range)]: post dose
Procedure: (§1) Study treatment was administered orally at a twice daily (BID) dose specified in the table below. Dosing was on a 28-day Cycle (4-week course) with a 3 week on/1 week off schedule. The treatment period will last for up to 24 Cycles followed by a 30-day Safety Follow-Up period.

[2] = tested on: NF1-associated plexiform neurofibromas (PN); assay: Phase 2b trial in adult and pediatric patients with NF1-associated inoperable plexiform neurofibromas; response by BICR volumetric MRI per REiNS criteria; format: in vivo, human; settings: for DoR ≥12 months: Kaplan-Meier based approach, data cut-off September 2023
Procedure: Participants were screened (assessed for eligibility as described below). […] The median age was 34.5 years (range 18 to 69 years); 85% were white and 64% were female. […] The most commonly reported morbidities were pain (90%) and disfigurement or major deformity (52%).
The median age was 10 years (range 2 to 17 years); 66% were white and 54% were female. […] The most commonly reported morbidities were pain (70%) and disfigurement or major deformity (50%).
as §1
A partial response was defined as PN decrease≥20% compared to baseline using centrally read MRI volumetric analysis.
The major efficacy outcome measure was confirmed objective response rate (ORR), defined as the percentage of patients with complete response (disappearance of the target PN) or confirmed partial response (≥20% reduction in PN volume confirmed at a subsequent tumor assessment within 2-6 months during the 24-cycle treatment phase). Responses were assessed by blinded independent central review (BICR) using volumetric magnetic resonance imaging (MRI) analysis per Response Evaluation in Neurofibromatosis and Schwannomatosis (REINS) criteria. A secondary efficacy objective was to determine the duration of response for patients who achieved a confirmed objective response.

[3] = Pediatric patients (2 to <18 years)

With `O=C(NOC[C@H](O)CO)c1ccc(F)c(F)c1Nc1ccc(I)cc1F` (single isomer, unassigned) [mirdametinib] the “Steady-state exposure AUClast [geometric mean (geometric % CV)]” value ([1]; Adult patients (≥18 years)) was “Adult patients (≥18 years): 431 (43%) ng · h/mL”, the “Steady-state exposure Cmax [geometric mean (geometric % CV)]” value ([1]; Adult patients (≥18 years)) was “Adult patients (≥18 years): 188 (52%) ng/mL” and the “Tmax [median (range)]” value ([1]; Capsule) was “Capsule: 1.08 (0.00-4.17) hours post dose”. The “Steady-state exposure AUClast [geometric mean (geometric % CV)]” value [1, 3] was “Pediatric patients (2 to <18 years): 459 (46%) ng · h/mL”, the “Steady-state exposure Cmax [geometric mean (geometric % CV)]” value [1, 3] was “Pediatric patients (2 to <18 years): 191 (62%) ng/mL” and the “Tmax [median (range)]” value ([1]; Tablet) was “Tablet: 0.83 (0.42-3.02) hours post dose”. For the same compound, the “DoR ≥12 months” value ([2]; Adult responders) was 18 (75%) n (%), the “DoR ≥12 months” value ([2]; Pediatric responders) was 22 (76%) n (%) and the “Median time to onset of response” value ([2]; adult cohort, range 4.0 to 19.0 months) was 7.8 months. For the same compound, the “Median time to onset of response” value ([2]; pediatric cohort, range 4.1 to 18.8 months) was 7.9 months.
